≈ marks a conversion by molar mass, not a printed value. Where two headings read alike, the source gives them in different places.
Key:
[1] = cited from earlier work
[2] = Microsomal (metabolic) stability; type: in vitro ADME; settings: human liver microsomes 1.0 mg/ml; for half-life at 1 µM / microsomal CLint at 1 µM / remaining at 80 min, 1 µM: pH 7.4; for remaining at 80 min, 1 µM: 80-min incubation
Method: A metabolic stability experiment was conducted to calculate the rate of disappearance of polyene macrolides following in vitro incubation with human microsomes. Working solutions of polyene macrolides were prepared from a 10 mM stock solution in dimethyl sulfoxide (DMSO) diluted to a final concentration of 1 µM in 0.1 M potassium phosphate buffer (pH 7.4). Each incubation mixture included 1 mg/mL human microsomal protein (BD Gentest^TM, Franklin Lakes, NJ, USA) and 1 mM NADPH. The reactions were terminated at 0, 15, 45, and 80 min. The reaction mixtures were vigorously vortexed and then analyzed using the API2000 LC-MS/MS) system (Applied Biosystems, USA) using an Xterra MS C18 (3.5-µm, 2.1 × 50 mm, Waters).

in vivo [3] = settings: male, SD, rat, iv, 1 mg/kg
[4] = set-up: method as in PMID 22382166; settings: cited from earlier work
[5] = set-up: method as in PMID 22382166; settings: cited from earlier work; remark: listed apart in the source
[6] = rats, oral administration
in vivo [7] = settings: mouse, 1 mg/kg
Source text: Supplement 41598_2018_31801_MOESM1_ESM.docx, table 4: Table S4.

[8] = 7-day repeated intravenous dose toxicity; type: in vivo, mice; settings: both sexes, ICR, mouse, in vivo; mice, 7-day repeated intravenous doses; read-out: MTD, maximal tolerated dose
Method: All in vivo mouse toxicity studies were conducted according to Testing Guidelines for Safety Evaluation of Drugs[32] and the Organisation for Economic Co-operation and Development (OECD) Guideline[33]. Male and female ICR mice were used 7 weeks old for the toxicity test. […]

[9] = Single intravenous dose acute toxicity; type: in vivo, mice; settings: both sexes, ICR, mouse, in vivo; mice, single intravenous administration; read-out: LD50, median lethal dose (dose causing 50% mortality)
Method: All in vivo mouse toxicity studies were conducted according to Testing Guidelines for Safety Evaluation of Drugs[32] and the Organisation for Economic Co-operation and Development (OECD) Guideline[33]. Male and female ICR mice were used 7 weeks old for the toxicity test. […] The single doses were 1, 2.5, and 5 mg per kg body weight.

horse blood cells = type: cell-based
Method: (§1) For the minimum inhibitory concentration (MIC) assay, strains for testing were grown on YPD agar for 24 hours, and subcultured to YPD broth medium. Whole strains were incubated for 18 hours at 35 °C by shaking incubator. Grown organisms were diluted with fresh RPMI 1640 medium to appropriate concentration, 5 × 10^4 CFU/ml. Cultures were inoculated to 96-well plates containing antifungal medium. All compounds were dissolved using Dimethyl Sulfoxide (DMSO) and diluted broth media. Fungal diluted solution and antifungal medium were mixed at 1:1 ratio so total 200 ul mixed medium was made. Whole experiment plates were incubated for 24 hours at 37 °C. […] The MICs were calculated in duplicate using the Clinical and Laboratory Standards Institute M27-A3 microbroth methodology. Hemolysis experiments and the 3-(4,5-dimethylthiazol-2-yl)-5-(3-carboxymethoxyphenyl)-2-(4-sulfophenyl)-2H-tetrazolium (MTS) cell proliferation colorimetric assay were performed following known procedures[12],[27],[29].

[10] = system: Candida albicans KCTC7965; assay: MIC assay (CLSI M27-A3 microbroth); type: cell-based
Method: as §1

C. albicans SL38 = assay: MIC assay (CLSI M27-A3 microbroth); type: cell-based; settings: Candida albicans
Method: as §1

C. albicans SC5314 [11] = assay: MIC assay (CLSI M27-A3 microbroth); type: cell-based; settings: Candida albicans
Method: as §1

C. albicans SL28 = assay: MIC assay (CLSI M27-A3 microbroth); type: cell-based; settings: Candida albicans
Method: as §1

C. albicans SC5314 [12] = assay: In vivo efficacy, candidiasis-infected mouse model (survival); set-up: species or system Candida albicans; settings: ICR mice infected with C. albicans SC5314; low dose 0.1 mg/kg
Source text: The systemic infection animal model was established using 4-week-old male ICR mice. Five C. albicans strains, consisting of two standard (C. albicans SC5314 and KCTC7965) and three clinical (C. albicans SL23, SL28, and SL38) strains were intravenously injected into the lateral tail vein of the various mouse groups. The mice were daily monitored for signs and mortality, and then they were euthanized. Subsequently, the target pathogenic C. albicans strain and optimal concentration for systemic infection for C. albicans were determined. A clinical isolate of C. albicans (SC5314) was grown and subcultured at 35 °C on Sabouraud dextrose agar (SDA) before infection. Candidiasis was induced by injecting 5 × 10^5 CFU/mouse via the tail vein of six 4-week-old ICR male mice. Each animal in the treatment group was administered a subcutaneous injection of reconstituted polyene macrolides 4 h after the infection. The drug efficacy was investigated by determining the survival rates of the mice.

## CC(=O)NC1C(OC2C(C)OC(OC3C=CC=CC=CC=CCCC=CC=CC(C)C(O)C(C)C(C)OC(=O)CC(O)CC(O)CC(O)CCC(O)C(O)CC4(O)CC(O)C(C(=O)O)C(C3)O4)C(O)C2N)OC(CO)C(O)C1O (stereo not drawn) [NPP A1, nystatin-like Pseudonocardia polyene (NPP) A1]
[1]
  hemolytic activity, fold reduced versus nystatin A1: 10 fold
[2]
  Clearance class: Low
  half-life at 1 µM: > 80 min
  microsomal CLint at 1 µM: < 8600 µL/min/mg
  remaining at 80 min, 1 µM: 60.9%
In vivo [3]; plasma
  AUC(0-inf): 4470 ng·h/mL
  AUC(0-t): 4390 ng·h/mL
  MRT inf: 42 min
  Vd: 0.1 L/kg
  clearance: 3.33 mL/min/kg
  half-life: 36 min
[4]
  water-solubility, fold higher than nystatin A1: 300 fold
[5]
  antifungal activity, lower than nystatin A1: approximately 50%
[6]
  detection in the plasma following oral administration: not detected
In vivo [7]; read-out: AUC0-inf
  AUC(0-inf): 12700 ng·h/mL
In vivo [7]; read-out: AUC0-t
  AUC(0-t): 12400 ng·h/mL
In vivo [7]; read-out: CL (converted)
  clearance: 1.67 mL/min/kg
In vivo [7]; read-out: MRTinf
  MRT inf: 66 min
In vivo [7]; read-out: Vss
  Vd: 0.1 L/kg
In vivo [7]; read-out: t1/2 (converted)
  half-life: 60 min
[8]
  MTD at 7 days: 5 to 10 mg/kg
[9]
  LD50 at 7 days: 16.1 mg/kg
Horse blood cells; 90% hemolysis against horse blood cells, ± percentage standard deviation
  Hemolytic activity (MHC, minimum hemolytic concentration): 459.35 ± 32.5 µg/mL
[10]; Candida albicans, KCTC7965, read-out: Antifungal activity (MIC)
  MIC: 16 µg/mL (≈ 14.2 µM)
C. albicans SL38; SL38, read-out: Antifungal activity (MIC)
  MIC: 16 µg/mL (≈ 14.2 µM)
C. albicans SC5314 [11]; SC5314, read-out: Antifungal activity (MIC)
  MIC: 16 µg/mL (≈ 14.2 µM)
C. albicans SL28; SL28, read-out: Antifungal activity (MIC)
  MIC: 16 µg/mL (≈ 14.2 µM)

## C[C@@H]1[C@H](O)[C@@H](C)/C=C/C=C/CC/C=C/C=C/C=C/C=C/[C@H](O[C@@H]2O[C@H](C)[C@@H](O)[C@H](N)[C@@H]2O)C[C@@H]2O[C@](O)(C[C@@H](O)[C@H](O)CC[C@@H](O)C[C@@H](O)C[C@@H](O)CC(=O)O[C@H]1C)C[C@H](O)[C@H]2C(=O)O [Nystatin A1, nystatin A1]
[2]
  Clearance class: Low
  half-life at 1 µM: > 80 min
  microsomal CLint at 1 µM: < 8600 µL/min/mg
  remaining at 80 min, 1 µM: 115%
In vivo [3]; in vivo
  MRT inf: 48 min
In vivo [3]; plasma
  AUC(0-inf): 5300 ng·h/mL
  AUC(0-t): 5120 ng·h/mL
  Vd: 0.2 L/kg
  clearance: 3.33 mL/min/kg
  half-life: 36 min
In vivo [7]
  AUC(0-inf): 7150 ng·h/mL
  AUC(0-t): 7120 ng·h/mL
  MRT inf: 54 min
  Vd: 0.1 L/kg
  clearance: 1.67 mL/min/kg
  half-life: 36 min
[8]
  MTD at 7 days: 2 to 4 mg/kg
[9]
  LD50 at 7 days: 5.37 mg/kg
Horse blood cells; horse
  Hemolytic activity (MHC, minimum hemolytic concentration): 66.17 ± 0.90 µg/mL
C. albicans SC5314 [12]
  survival rate: gradually decreased
[10]; Candida albicans KCTC7965, no visible growth, read-out: Antifungal activity (MIC)
  MIC: 4 µg/mL (≈ 4.32 µM)
C. albicans SL38; C. albicans SL38, no visible growth, read-out: Antifungal activity (MIC)
  MIC: 4 µg/mL (≈ 4.32 µM)
C. albicans SC5314 [11]; C. albicans SC5314, no visible growth, read-out: Antifungal activity (MIC)
  MIC: 4 µg/mL (≈ 4.32 µM)
C. albicans SL28; C. albicans SL28, no visible growth, read-out: Antifungal activity (MIC)
  MIC: 4 µg/mL (≈ 4.32 µM)
